From patent publication US12247004B2, “2-amino-N-(amino-oxo-aryl-lambda6-sulfanylidene)acetamide compounds and their therapeutic use” (Oxford Drug Design Limited, priority 2019, dated 2025)
≈ marks a conversion by molar mass, not a printed value. Structures can show the parent of a compound that is named as a salt. Where two headings read alike, the source gives them in different places.

Experiments:
[1] = biological target: Leucyl-tRNA synthetase (LeuRS) (Escherichia coli (strain K12), UniProt P07813); assay: Leucyl-tRNA synthetase enzyme inhibition (AMP-Glo; single point % inhibition at 100 μM and IC50); type: biochemical
Sequence of Leucyl-tRNA synthetase (LeuRS) (P07813 whole entry, looked up): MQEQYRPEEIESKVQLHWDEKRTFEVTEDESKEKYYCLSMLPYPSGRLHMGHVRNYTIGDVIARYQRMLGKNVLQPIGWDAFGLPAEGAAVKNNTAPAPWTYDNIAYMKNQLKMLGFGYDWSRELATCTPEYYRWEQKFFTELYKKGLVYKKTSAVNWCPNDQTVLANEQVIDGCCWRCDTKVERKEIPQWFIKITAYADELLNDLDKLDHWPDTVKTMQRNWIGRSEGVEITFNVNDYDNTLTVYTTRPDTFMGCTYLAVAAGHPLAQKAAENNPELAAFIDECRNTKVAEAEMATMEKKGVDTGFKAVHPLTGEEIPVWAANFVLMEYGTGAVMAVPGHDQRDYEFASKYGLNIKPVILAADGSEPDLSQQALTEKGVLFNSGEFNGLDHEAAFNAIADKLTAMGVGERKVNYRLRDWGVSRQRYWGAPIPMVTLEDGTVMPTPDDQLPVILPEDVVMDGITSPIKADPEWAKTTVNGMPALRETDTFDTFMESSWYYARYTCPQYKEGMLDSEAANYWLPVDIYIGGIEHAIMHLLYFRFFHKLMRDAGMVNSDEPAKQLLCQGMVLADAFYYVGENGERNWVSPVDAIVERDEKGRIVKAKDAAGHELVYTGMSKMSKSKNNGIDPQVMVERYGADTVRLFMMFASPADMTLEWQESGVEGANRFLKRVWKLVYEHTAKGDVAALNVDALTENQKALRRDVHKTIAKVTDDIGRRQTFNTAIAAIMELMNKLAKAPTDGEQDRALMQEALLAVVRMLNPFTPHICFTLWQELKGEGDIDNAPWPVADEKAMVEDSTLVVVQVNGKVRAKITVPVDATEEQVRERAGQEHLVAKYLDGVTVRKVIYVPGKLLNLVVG

[2] = Human cell viability / cytotoxicity (CellTiter-Glo, 24 hours); type: cell-based; details: human, HepG2 cells (ATCC HB-8065); HepG2 ATCC HB-8065, 24 hours; read-out: Cytotoxicity in HepG2 ATCC HB-8065 Cell Line, IC50
Description: Study 3—Human Cell Viability
Compounds were assessed for potential non-specific cytotoxic effects against a human hepatic cell line (HepG2 ATCC HB-8065). 96-well plates were seeded with HepG2 cells in concentration of 15,000 cells per well in 100 μL of MEM growth media completed with 1% NEAA and 1% sodium pyruvate. Border wells were filled with 100 μL of sterile PBS. Two days upon cells incubation, the compounds were added. Compound dilutions were prepared in 96-well V-bottom plate in pure DMSO. Growth media from 5 plates were aspirated and replaced with 98.7 μL of fresh growth media. 1.28 μL of compounds prepared in V-bottom plates were transferred with multichannel pipette into test plates (78.1× dilution). Final DMSO concentration was 1.28% per well. In control wells, 1.28 μL of DMSO was added in 98.7 μL of media. Compounds were tested in duplicates. Cells were incubated with compounds for 24 hours when cell viability was assessed by measuring ATP levels. ATP levels were measured by adding 50 μL of CellTiter-Glo reagent to each well and after 5 minutes of incubation luminescence was measured with SpectraMax i3. The potential effect of tested compounds on cell viability was determined by comparing the signal obtained in presence of different concentrations of the compounds with those obtained in the presence of DMSO only. The potential effects were then calculated and presented as IC50 values (μg/mL).

[3] = E. coli LeuRS, read-out: Enzyme Inhibition - IC50, E. coli LeuRS

Structure (SMILES)	IC50 [1, 3] [nM]	IC50 at 24 h [2] [µg/mL]	IC50 [1] [nM]
CC(C)C[C@H](N)C(=O)N=S(N)(=O)c1ccc(Cl)c2ccccc12 (stereo partly shown) [ANASIA-019]	2260	> 64	
CC(C)C[C@H](N)C(=O)N=[S@](N)(=O)c1ccc(F)c2ccccc12 [ANASIA-020-1]		> 64	2050
CC(C)C[C@H](N)C(=O)N=[S@@](N)(=O)c1ccc(F)c2ccccc12 [ANASIA-020-2]	4090	> 64	
Cc1ccc([S@@](N)(=O)=NC(=O)[C@@H](N)CC(C)C)cc1 [ANASIA-021-1]		> 64	2060
COc1ccc([S@@](N)(=O)=NC(=O)[C@@H](N)CC(C)C)cc1C [ANASIA-022-1]		> 64	6570
CC(C)C[C@H](N)C(=O)N=S(N)(=O)c1cc2ccccc2s1 (stereo partly shown) [ANASIA-023]		> 64	1290
CC(C)C[C@H](N)C(=O)N=[S@@](N)(=O)c1cc(F)ccc1F [ANASIA-024-2]	6280	> 64	
CC(C)C[C@H](N)C(=O)N=[S@](N)(=O)c1c(F)cccc1F [ANASIA-026-1]		> 64	564
CC(C)C[C@H](N)C(=O)N=[S@@](N)(=O)c1c(F)cccc1F [ANASIA-026-2]	4420	> 64	
Cc1cc(F)ccc1[S@@](N)(=O)=NC(=O)[C@@H](N)CC(C)C [ANASIA-027-1]		> 64	4530
Cc1cnc(S(N)(=O)=NC(=O)[C@@H](N)CC(C)C)s1 (stereo partly shown) [ANASIA-039]	8830	> 64	
CC(C)C[C@H](N)C(=O)N=[S@](N)(=O)c1ccc(Cl)cc1 [ANASIA-040-1]		> 64	2540
CC(C)C[C@H](N)C(=O)N=[S@@](N)(=O)c1cccc(C#N)c1 [ANASIA-041-2]	832	> 64	
CC(C)C[C@H](N)C(=O)N=[S@](N)(=O)c1ccc(Cl)c(Cl)c1 [ANASIA-042-1]		> 64	1110
CC(C)C[C@H](N)C(=O)N=[S@@](N)(=O)c1ccc(Cl)c(Cl)c1 [ANASIA-042-2]	7920	> 64	
CC(C)C[C@H](N)C(=O)N=[S@@](N)(=O)c1cccc(C(C)C)c1 [ANASIA-043-2]	735	> 64	
CC(C)C[C@H](N)C(=O)N=[S@@](N)(=O)c1cccc(Cl)c1Cl [ANASIA-046-2]		> 64	2570
CC(C)C[C@H](N)C(=O)N=[S@@](N)(=O)c1cccc(Oc2ccc(Cl)cc2)c1 [ANASIA-047-2]	1290	45.3 (≈ 114 µM)	
CC(C)C[C@H](N)C(=O)N=[S@](N)(=O)c1cccc(C(C)(C)C)c1 [ANASIA-049-1]		> 64	296
CC(C)C[C@H](N)C(=O)N=[S@](N)(=O)c1cccc(-c2cccc(F)c2)c1 [ANASIA-051-1, (S)-2-amino-N—((S)-amino(3′-fluoro-[1,1′-biphenyl]-3-yl)(oxo)-λ6-sulfanylidene)-4-methylpentanamide hydrochloride]		> 64	601
